Measurements taken from patent US12180187B2, “1-phenyl-5-azinylpyrazolyl-3-oxyalkyl acids and their use for controlling unwanted plant growth” (BAYER AKTIENGESELLSCHAFT, priority 2019, dated 2024).

What was measured:
POAAN [1] = test: Post-emergence action against POAAN, 1.28 kg/ha; format: in vivo, Poa annua; conditions: dosage 1280 g/ha, visual rating about 3 weeks after treatment vs untreated controls
Procedure: (§1) • a) Seeds of mono- and dicotyledonous weed plants are placed in plastic pots in sandy loam soil (twin sowing with one species each of mono- or dicotyledonous weed plants per pot), covered with soil and cultivated in a greenhouse under controlled growth conditions. 2 to 3 weeks after sowing, the test plants are treated at the one-leaf stage. The compounds of the invention, formulated in the form of wettable powders (WP) or as emulsion concentrates (EC), are applied to the green parts of the plants as aqueous suspension or emulsion with addition of 0.5% additive at a water application rate equivalent to 600 litres per hectare. After the test plants have been kept in the greenhouse under optimum growth conditions for about 3 weeks, the activity of the preparations is rated visually in comparison to untreated controls. For example, 100% activity=the plants have died, 0% activity=like control plants. As shown by the results, compounds of the general formula (I) of the invention, in post-emergence treatment, have very good herbicidal efficacy (90% to 100% herbicidal action) against harmful plants such as Abutilon theophrasti, Digitaria sanguinalis, Echinochloa crus-galli, Matricaria inodora, Poa annua, at an application rate of 1.28 kg of active substance per hectare.

SETVI = test: Pre-emergence action against SETVI, 1280 g/ha; format: in vivo, Setaria viridis; conditions: visual scoring after about 3 weeks vs untreated controls, 100% = plants have died, 0% = like control plants
Description: (§2) 1. Pre-Emergence Herbicidal Effect and Crop Plant Compatibility a) Seeds of mono- and dicotyledonous weed plants are placed in plastic pots in sandy loam soil (doubly sown with one species each of mono- or dicotyledonous weed plants per pot) and covered with soil. The compounds of the invention, formulated in the form of wettable powders (WP) or as emulsion concentrates (EC), are then applied onto the surface of the covering soil as aqueous suspension or emulsion with addition of 0.5% additive at a water application rate equivalent to 600 litres per hectare. After the treatment, the pots are placed in a greenhouse and kept under good growth conditions for the trial plants. After about 3 weeks, the effect of the preparations is scored visually in comparison with untreated controls as percentages. For example, 100% activity=the plants have died, 0% activity=like control plants. 1. Pre-Emergence Effectiveness Tables 1 to 12 below show the effects of selected compounds of the general formula (I) according to Tables 1 and 2 on various harmful plants and at an application rate corresponding to 1280 g/ha, which were obtained by the experimental procedure mentioned above.

MATIN [2] = test: Post-emergence action against MATIN, 1.28 kg/ha; format: in vivo, Tripleurospermum inodorum (Matricaria inodora); conditions: dosage 1280 g/ha, visual rating about 3 weeks after treatment vs untreated controls (100% = plants died)
Procedure: as §1

LOLRI = test: Pre-emergence action against LOLRI, 1280 g/ha; format: in vivo, Lolium rigidum; conditions: visual scoring after about 3 weeks vs untreated controls, 100% = plants have died, 0% = like control plants
Description: as §2

VERPE [3] = test: Pre-emergence action against VERPE, 1280 g/ha; format: in vivo, Veronica persica; conditions: scored visually after about 3 weeks vs untreated controls (100% = plants have died)
Description: as §2

DIGSA [4] = test: Pre-emergence action against DIGSA, 1280 g/ha; format: in vivo, Digitaria sanguinalis; conditions: visual scoring after about 3 weeks vs untreated controls, 100% = plants have died, 0% = like control plants
Description: as §2

MATIN [5] = test: Pre-emergence action against MATIN, 1280 g/ha; format: in vivo, Tripleurospermum inodorum (Matricaria inodora); conditions: scored visually after about 3 weeks vs untreated controls (100% = plants have died)
Description: as §2

VERPE [6] = test: Post-emergence action against VERPE, 1.28 kg/ha; format: in vivo, Veronica persica; conditions: dosage 1280 g/ha, visual rating about 3 weeks after treatment vs untreated controls (100% = plants died)
Procedure: as §1

AMARE [7] = test: Pre-emergence action against AMARE, 1280 g/ha; format: in vivo, Amaranthus retroflexus; conditions: scored visually after about 3 weeks vs untreated controls (100% = plants have died)
Description: as §2

AMARE [8] = test: Post-emergence action against AMARE, 1.28 kg/ha; format: in vivo, Amaranthus retroflexus; conditions: dosage 1280 g/ha, visual rating about 3 weeks after treatment vs untreated controls (100% = plants died)
Procedure: as §1

ABUTH = test: Post-emergence action against ABUTH, 1.28 kg/ha; format: in vivo, Abutilon theophrasti; conditions: dosage 1280 g/ha, visual rating about 3 weeks after treatment vs untreated controls (100% = plants died)
Procedure: as §1

POAAN [9] = test: Pre-emergence action against POAAN, 1280 g/ha; format: in vivo, Poa annua; conditions: visual scoring after about 3 weeks vs untreated controls, 100% = plants have died, 0% = like control plants
Description: as §2

ECHCG [10] = test: Post-emergence action against ECHCG, 1.28 kg/ha; format: in vivo, Echinochloa crus-galli; conditions: dosage 1280 g/ha, visual rating about 3 weeks after treatment vs untreated controls
Procedure: as §1

ECHCG [11] = test: Pre-emergence action against ECHCG, 1280 g/ha; format: in vivo, Echinochloa crus-galli; conditions: visual scoring after about 3 weeks vs untreated controls, 100% = plants have died, 0% = like control plants
Description: as §2

STEME [12] = test: Pre-emergence action against STEME, 1280 g/ha; format: in vivo, Stellaria media; conditions: scored visually after about 3 weeks vs untreated controls (100% = plants have died)
Description: as §2

ALOMY [13] = test: Post-emergence action against ALOMY, 1.28 kg/ha; format: in vivo, Alopecurus myosuroides; conditions: dosage 1280 g/ha, visual rating about 3 weeks after treatment vs untreated controls
Procedure: as §1

VIOTR = test: Pre-emergence action at 320 g/ha against VIOTR; format: in vivo, Viola tricolor; conditions: dosage 320 g/ha
Description: (§3) b) Seeds of monocotyledonous and dicotyledonous weed plants and crop plants are placed in plastic or organic planting pots and covered with soil. The compounds of the invention, formulated in the form of wettable powders (WP) or as emulsion concentrates (EC), are then applied onto the surface of the covering soil as aqueous suspension or emulsion with addition of 0.5% additive at a water application rate of 600 l/ha (converted). After the treatment, the pots are placed in a greenhouse and kept under good growth conditions for the trial plants. After about 3 weeks, the effect of the preparations is scored visually in comparison with untreated controls as percentages. For example, 100% activity=the plants have died, 0% activity=like control plants. Tables 13 to 26 below show the effects of selected compounds of the general formula (I) on various harmful plants and at an application rate corresponding to 320 g/ha, which were obtained by the experimental procedure mentioned above.

ALOMY [14] = test: Pre-emergence action against ALOMY, 1280 g/ha; format: in vivo, Alopecurus myosuroides; conditions: visual scoring after about 3 weeks vs untreated controls, 100% = plants have died, 0% = like control plants
Description: as §2

DIGSA [15] = test: Post-emergence action against DIGSA, 1.28 kg/ha; format: in vivo, Digitaria sanguinalis; conditions: dosage 1280 g/ha, visual rating about 3 weeks after treatment vs untreated controls
Procedure: as §1

POLCO = test: Pre-emergence action at 320 g/ha against POLCO; format: in vivo, Fallopia convolvulus (Polygonum convolvulus); conditions: visual scoring after about 3 weeks vs untreated controls
Description: as §3

ALOMY [16] = test: Pre-emergence action at 320 g/ha against ALOMY; format: in vivo, Alopecurus myosuroides; conditions: scored visually after about 3 weeks vs untreated controls (100% = plants have died)
Description: as §3

AMARE [17] = test: Pre-emergence action at 320 g/ha against AMARE; format: in vivo, Amaranthus retroflexus; conditions: visual scoring after about 3 weeks vs untreated controls
Description: as §3

STEME [18] = test: Post-emergence action against STEME, 1.28 kg/ha; format: in vivo, Stellaria media; conditions: dosage 1280 g/ha, visual rating about 3 weeks after treatment vs untreated controls (100% = plants died)
Procedure: as §1

Row | Compound | Post-emergence action against POAAN (POAAN [1]) | Pre-emergence action against SETVI (SETVI) | Post-emergence action against MATIN (MATIN [2]) | Pre-emergence action against LOLRI (LOLRI) | Pre-emergence action against VERPE (VERPE [3]) | Pre-emergence action against DIGSA (DIGSA [4]) | Pre-emergence action against MATIN (MATIN [5]) | Post-emergence action against VERPE (VERPE [6]) | Pre-emergence action against AMARE (AMARE [7]) | Post-emergence action against AMARE (AMARE [8]) | Post-emergence action against ABUTH (ABUTH) | Pre-emergence action against POAAN (POAAN [9]) | Post-emergence action against ECHCG (ECHCG [10]) | Pre-emergence action against ECHCG (ECHCG [11]) | Pre-emergence action against STEME (STEME [12]) | Post-emergence action against ALOMY (ALOMY [13]) | Pre-emergence action against ALOMY (ALOMY [14]) | other results
1 | O=C(O)COc1nn(-c2ccccc2F)c(-c2cnccn2)c1Br [Example I-003] | 100% | 90% | 90% | 90% | 90% | 90% | 90% | 90% | 90% | 100% | 90% | 100% | 90% | 90% | 100% |  |  | 
2 | CCOC(=O)COc1nn(-c2ccccc2F)c(-c2cnccn2)c1Br [Example I-004] |  | 100% |  | 90% | 90% | 90% | 90% | 100% | 100% | 90% | 90% | 100% | 90% | 90% | 100% | 100% |  | 
3 | COC(=O)C1CCCN(C(=O)COc2nn(-c3ccccc3F)c(-c3ccc(F)nc3)c2Br)C1 (stereo not shown) [Example X-018] |  |  |  |  |  |  |  |  |  |  |  |  |  |  |  |  |  | Pre-emergence action against VIOTR in % (VIOTR): 90%
4 | CONC(=O)COc1nn(-c2ccccc2F)c(-c2ccc(F)cn2)c1Br [II-003] | 100% | 100% | 90% | 100% |  | 100% | 100% | 100% | 100% |  | 90% | 100% |  | 100% | 90% | 100% |  | 
5 | CCOC(=O)COc1nn(-c2ccccc2F)c(-c2ccc(F)cn2)c1Br [II-014] | 90% | 90% | 90% | 100% | 100% | 100% | 100% | 90% | 90% | 90% | 90% | 100% |  | 100% | 90% |  | 100% | Post-emergence action against DIGSA (DIGSA [15]): 90%
6 | CCOC(=O)COc1nn(-c2ccccc2F)c(-c2ccc([S+](C)[O-])nc2)c1Br (stereo not shown) [VII-044] |  |  |  |  |  |  |  |  |  |  |  |  |  |  |  |  |  | Pre-emergence action against POLCO in % (POLCO): 100%; Pre-emergence action at 320 g/ha against ALOMY in % (ALOMY [16]): 90%; Pre-emergence action against VIOTR in % (VIOTR): 100%; Pre-emergence action against AMARE in % (AMARE [17]): 90%
7 | CSc1ccc(-c2c(Br)c(OCC(=O)O)nn2-c2ccccc2F)cn1 [VII-047] |  |  |  |  |  |  |  |  |  |  |  |  |  |  |  |  |  | Pre-emergence action against AMARE in % (AMARE [17]): 90%
8 | COC(=O)COc1nn(-c2cc(F)ccc2F)c(-c2ccc(F)nc2)c1C#N [VII-063] | 100% | 100% | 90% | 100% | 100% | 100% | 90% | 90% | 100% | 100% |  | 100% |  |  | 100% | 100% | 100% | Post-emergence action against STEME (STEME [18]): 100%
9 | O=C(COc1nn(-c2ccccc2F)c(-c2ccc(F)nc2)c1Br)OCc1ccco1 [VII-098] | 100% | 100% | 100% | 100% | 100% | 100% | 90% | 90% | 100% |  | 90% | 100% | 90% | 100% | 100% | 100% | 100% | Post-emergence action against DIGSA (DIGSA [15]): 100%
10 | COC(=O)COc1nn(-c2ccccc2F)c(-c2ccc(F)nc2)c1SC [VII-123] | 100% |  | 90% | 90% | 90% | 100% | 100% | 90% | 90% | 90% | 90% | 100% | 100% |  | 90% | 90% |  | 
11 | CS(=O)(=O)NC(=O)COc1nn(-c2ccccc2F)c(-c2ccnc(F)c2)c1Br [VIII-012] | 100% | 100% | 100% | 100% | 100% | 100% | 100% | 90% | 100% | 100% |  | 100% | 100% | 100% |  | 100% | 100% | Post-emergence action against DIGSA (DIGSA [15]): 100%; Post-emergence action against STEME (STEME [18]): 90%
